Each structure is given as a SMILES string.

The conditions of series [1]: literature values; cited from earlier work.
Another series has as its system Sprague-Dawley rats. In words: Intranasal delivery of gentamicin, serum gentamicin by fluorescence polarization immunoassay. It counts as in vivo. The following applies: 5 mg/kg gentamicin, 1.32 mM enhancer. How it is done: Experimental Conditions: Sprague-Dawley rats (male, 205-240 g) were anesthetized by intramuscular injection of 7.5 mg/kg xylazine with 50 mg/kg ketamine. Gentamicin (40 μl) was administered intranasally at time 0. Formulations contained 5 mg/kg gentamicin, with and without 1.32 mM QH-957. Blood was withdrawn from the tail vein at various timepoints. Serum gentamicin levels were measured using a fluorescence polarization immunoassay. The assay was linear from 0.3-10.0 μg/ml, and the limit of detection was 0.3 μg/ml. A value of 0.3 μg/ml was used in plotting the timepoints with serum levels below the limit of detection. Groups of 3 animals were used. Data are presented as ±standard error of the mean.
Experimental Conditions: Sprague-Dawley rats (male, 205-240 g) were anesthetized by intramuscular injection of 7.5 mg/kg xylazine with 50 mg/kg ketamine. Gentamicin (40 μl) was administered intranasally at time 0. […] Serum gentamicin levels were measured using a fluorescence polarization immunoassay. […]
Sprague-Dawley rats (male, 205-240 g) were anesthetized by intramuscular injection of 7.5 mg/kg xylazine with 50 mg/kg ketamine. […] Serum gentamicin levels were measured using a fluorescence polarization immunoassay. […] The area under the serum gentamicin concentration curve (AUC) was calculated using the trapezoidal rule. […]
For orientation: In fluorescence polarisation assays a small probe gives low polarisation when free and higher when bound to something large.

A further series deals with rabbits. The note with it: nasal administration; cited from earlier work.

Take `CC1(C)[C@@H](O[C@H]2O[C@H](C(=O)O)[C@@H](O)[C@H](O)[C@H]2O[C@@H]2O[C@H](C(=O)O)[C@@H](O)[C@H](O)[C@H]2O)CC[C@]2(C)[C@H]3C(=O)C=C4[C@@H]5C[C@@](C)(C(=O)O)CC[C@]5(C)CC[C@@]4(C)[C@]3(C)CC[C@@H]12` [glycyrrhizic acid]: the “concentration needed for drug delivery” value in series [1] was 23.8 mM. In addition, the “enhanced intranasal permeation of gentamicin (serum gentamicin levels)” value in the series with Sprague-Dawley rats is listed as “did not”.

Regarding `C[C@H](CCC(=O)NCC(=O)[O-])[C@H]1CC[C@H]2[C@@H]3[C@H](O)C[C@@H]4C[C@H](O)CC[C@]4(C)[C@H]3C[C@H](O)[C@]12C.[Na+]` [sodium glycocholate], the “concentration needed for drug delivery” value in series [1] was 20.5 mM. Also, in the series with Sprague-Dawley rats, the “enhanced intranasal permeation of gentamicin (serum gentamicin levels)” value was “did not”. Also, in the series with rabbits, the “total absorption of β-interferon relative to intravenous administration” value is 2.2%.

These data come from patent US5650398A, “Drug delivery enhancement via modified saponins” (Cambridge Biotech Corporation, priority 1995, dated 1997).
